This is an account of results in patent US20030064434A1, “Novel G Protein-coupled receptor, GAVE1” (Aventis Pharmaceuticals, Inc., priority 2001, published 2003).

For one assay, the system named is GAVE1 (Homo sapiens). Kind of assay: FLIPR assay, change in fluorescence of GAVE1 expressing CHO cells. To be noted: CHO cells expressing GAVE1, increasing amounts of ligand; untransformed CHO cells show control level. It is filed as cell-based.
Assay [1] has as its system GAVE1 expression in rat cardiac myocytes. The assay can be described thus: Northern blot of GAVE1 RNA levels in cardiomyocytes exposed to phenylephrine. Format: cell-based. To be noted: rat cardiac myocytes stimulated 48 hours with 10^-5 M phenylephrine; compared to control (untreated) or vehicle-treated myocytes. On the procedure: FIG. 7 is a computer representation of a Northern blot depicting GAVE1 RNA levels of cardiomyocytes expressing GAVE1 exposed to medium, vehicle and vehicle containing phenylephrine.
Northern blot analysis is performed on RNA derived from several human tissue samples to determine whether the tissues express the hGAVE1 receptor gene. The probe used is P^32-labeled hGAVE1 cDNA.
P32-labeled hGAVE1 cDNA is prepared as follows. Twenty-five ng hGAVE1 cDNA prepared as described above is resuspended to 45 μl of 10 mM Tris-HCl, pH 7.5; 1 mM EDTA in a microfuge tube and heated at 95° C. for 5 minutes. The tube then is chilled on ice for another 5 minutes. Following chilling, the mixture contained in the tube is resuspended with the 45 μl GAVE1 cDNA and buffer as described above and mixed with RTS Rad Prime Mix (supplied with the RTS Rad Prime DNA-labeling System) (Life Technologies, Catalog No. 10387-017). Five μl of P^32-labeled α-dCTP, specific activity: 3000 Ci/mM, (Amersham, AA0005) is added while mixing gently but thoroughly. The resulting mixture is incubated at 37° C. for 10 minutes. Incubation is stopped by the addition of 5 μl of 0.2 M EDTA, pH 8.0. Incorporation of the radioactive alpha-dCTP into the hGAVE1 cDNA is evaluated by taking a 5 μl aliquot of the mixture and counting the radioactivity. […]

Sequence of GAVE1 (Homo sapiens) (P21453 whole entry): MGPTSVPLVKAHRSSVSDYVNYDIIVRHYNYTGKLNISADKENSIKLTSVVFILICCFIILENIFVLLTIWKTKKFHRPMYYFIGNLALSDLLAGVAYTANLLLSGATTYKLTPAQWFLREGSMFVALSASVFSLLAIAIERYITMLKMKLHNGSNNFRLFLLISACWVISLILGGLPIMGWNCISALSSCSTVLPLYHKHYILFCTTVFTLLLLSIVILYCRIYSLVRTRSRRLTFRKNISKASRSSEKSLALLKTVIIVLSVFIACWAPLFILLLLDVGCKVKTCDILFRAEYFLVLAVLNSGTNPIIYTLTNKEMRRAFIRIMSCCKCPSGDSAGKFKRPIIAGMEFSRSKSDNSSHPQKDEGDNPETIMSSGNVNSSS
Excerpt for GAVE1 (Homo sapiens): To screen for agonists of human GAVE1, hGAVE1 is artificially coupled to a Gq signaling package. Activation of the Gq mechanism stimulates the release of Ca^2+ from sarcoplasmic reticulum vesicles within the cell. The Ca^2+ is released into the cytoplasm where it can be detected using Ca^2+ chelating dyes. A Fluorometric Imaging Plate Reader or FLIPR® apparatus (Molecular Devices) is used to monitor any resulting changes in fluorescence. The activity of an agonist is reflected by an increase in fluorescence.
CHO-K1 cells expressing hGAVE1 are pre-engineered to express an indiscriminate form of Gq protein (Gα16). […]
A compound library containing possible agonists will be tested at 10 μM concentration in physiological salt buffer. Changes in fluorescence are measured for 10 seconds prior to compound addition. After the addition of the compound, fluorescence is measured every second for the first minute followed by exposures taken every six seconds for a total experimental analysis time of three minutes. […] The maximum fluorescence changes for the first 80 scans is recorded as a measure of agonist activity and compared to the maximum fluorescence change induced by 10 μM ATP (Sigma A9062).

Consider `CCCCCCCCCCCCC/C=C/[C@@H](O)[C@@H](N)COP(=O)(O)O` [S1P, sphingosine-1-phosphate], for which the “change in fluorescence (GAVE1 activity)” value with GAVE1 (Homo sapiens) is on record as “positive correlation of activity with increasing amounts of ligand”. In the case of `CNC[C@H](O)c1cccc(O)c1` [phenylephrine], the “level of GAVE1 expression” value in assay [1] is “up-regulated several-fold”.
